Legend:
Experiment in all cases: cells
[1] = tested on: A549; design: species or system H23, H460, H358; CellTiter-Glo ATP viability of NSCLC cell lines; conditions: Homo sapiens, A549, 48 h, read-out: AZD6738 GI50 (uM)
Procedure: (§1) ATP levels were assessed as surrogate measure of viability was assessed using the CellTiter-Glo Luminescent Cell Viability Assay (Promega) and Safire^2 plate reader (Tecan). Raw data were corrected for background luminescence prior to further analysis. […] GI50 values, defined as the dose X at which Y = 50%, were extrapolated from dose response curves. For combination treatments, data were normalized to the mean of untreated controls. Loewe excess matrices were generated using Chalice Analyzer Online (Horizon CombinatoRx) and mean normalized inhibition values. […] Log dose response curves were generated in GraphPad Prism 6 by nonlinear regression (log(inhibitor) vs. normalized response with variable slope) of log-transformed (x = log(x)), normalized data. IC50 values were calculated by Prism 6.

[2] = tested on: H23; design: species or system H460, A549, H358; CellTiter-Glo ATP viability of NSCLC cell lines; conditions: Homo sapiens, NCI-H23, 48 h, read-out: AZD6738 GI50 (uM)
Procedure: as §1

[3] = tested on: H358; design: species or system H23, H460, A549; CellTiter-Glo ATP viability of NSCLC cell lines; conditions: Homo sapiens, NCI-H358, 48 h, read-out: AZD6738 GI50 (uM)
Procedure: as §1

[4] = tested on: H460; design: species or system H23, A549, H358; CellTiter-Glo ATP viability of NSCLC cell lines; conditions: Homo sapiens, NCI-H460, 48 h, read-out: AZD6738 GI50 (uM)
Procedure: as §1

- GI50 [1]: 5.42 µM
- GI50 [3]: 6.95 µM
- GI50 [4]: 1.05 µM
Structure (SMILES): C[C@@H]1COCCN1c1cc(C2([S@](C)(=N)=O)CC2)nc(-c2cc[nH]c3nccc2-3)n1 [AZD6738]
- GI50 [2]: 2.38 µM
